In publication PMC3894848 (Journal of medicinal chemistry, 2013):

Assays:
BRD4 BrD1 = BRD4 BrD1 (Homo sapiens, UniProt O60885); assay: Fluorescence anisotropy competition binding assay; conditions: for binding activity toward BRD4 BrD1 (in words): fluorescence anisotropy/polarization assay; for Lipophilic Ligand Efficiency: against BRD4-BrD1, LLE = pKi – ClogP
BRD4 BrD2 = BRD4 BrD2 (Homo sapiens, UniProt O60885); assay: Fluorescence anisotropy competition binding assay, BRD4 BrD2

**Q.** How did the “binding activity toward BRD4 BrD1 (in words)” value (BRD4 BrD1) turn out when CC(C)(C)c1cc(/N=N/c2ccc(S(=O)(=O)Nc3ccccn3)cc2)cc(C(C)(C)C)c1O [Compound 42, (E)-4-((3,5-di-tert-butyl-4-hydroxyphenyl)diazenyl)-N-(pyridin-2-yl)benzenesulfonamide] was run?
**A.** almost completely lost their activities

**Q.** How did the “binding activity toward BRD4 BrD1 (in words)” value (BRD4 BrD1) turn out when CC(=O)Nc1c(C)cc(/N=N/c2ccc(S(=O)(=O)Nc3ccccn3)cc2)cc1C [Compound 38, (E)-N-(2,6-dimethyl-4-((4-(N-(pyridin-2-yl)sulfamoyl)phenyl)diazenyl)phenyl)acetamide] was run?
**A.** completely lost binding activity

**Q.** Which “reduction in binding affinity to the BRD4 BrD1 vs MS436” value (BRD4 BrD1) does the source give for Cc1cc(/N=N/c2cccc(S(=O)(=O)Nc3ccccn3)c2)c(N)cc1O [Compound 51, (E)-3-((2-amino-4-hydroxy-5-methylphenyl)diazenyl)-N-(pyridin-2-yl)benzenesulfonamide] here?
**A.** 10 fold

**Q.** What about the “reduction in binding affinity to the BRD4 BrD2 vs MS436” value (BRD4 BrD2) of the same molecule?
**A.** 3 fold

**Q.** Cc1cc(/N=N/c2ccc(S(=O)(=O)Nc3ccccn3)cc2)c(N)c(C)c1O [Compound 28, (E)-4-((2-amino-4-hydroxy-3,5-dimethylphenyl)diazenyl)N-(pyridin-2-yl)benzenesulfon-amide] was tested. Which “Lipophilic Ligand Efficiency” value (BRD4 BrD1) did it give?
**A.** 2.77

**Q.** And the “reduction in binding affinity to the BRD4 BrD1 vs MS436” value (BRD4 BrD1)?
**A.** about 2 fold

**Q.** Which “binding activity toward BRD4 BrD1 (in words)” value (BRD4 BrD1) does the source give for Cc1cc(/N=N/c2ccc(S(=O)(=O)NCc3ccc(C(F)(F)F)cc3)cc2)ccc1O [Compound 35, (E)-4-((4-hydroxy-3-methylphenyl)diazenyl)-N-(4-(trifluoromethyl)benzyl)benzenesulfon-amide] here?
**A.** deteriorated drastically

**Q.** With Cc1cc(/N=N/c2ccc(S(=O)(=O)NCc3ccc(C(F)(F)F)cc3)cc2)cc(C)c1O [Compound 5, (E)-4-((4-hydroxy-3,5-dimethylphenyl)diazenyl)-N-(4-(trifluoromethyl)benzyl)benzenesul-fonamide] as the molecule, how does the “binding activity toward BRD4 BrD1 (in words)” value (BRD4 BrD1) read?
**A.** deteriorated drastically

**Q.** How did the “improvement in binding affinity to the BRD4 BrDs over MS120 (1)” value (BRD4 BrD1; vs MS120 (1), both BRD4 BrDs) turn out when Cc1cc(C)c(S(=O)(=O)O)cc1/N=N/c1cc(C)c(O)c(C)c1 [Compound 2, (E)-5-(3,5-dimethyl-4-hydroxyphenylazo)-2,4-dimethylbenzenesulfonic acid] was run?
**A.** 2–3 fold

**Q.** Which “Lipophilic Ligand Efficiency” value (BRD4 BrD1) does the source give for Cc1cc(/N=N/c2ccc(S(=O)(=O)Nc3ccccn3)cc2)cc(C)c1O [Compound 4, (E)-4-((4-hydroxy-3,5-dimethylphenyl)diazenyl)-N-(pyridin-2-yl)benzenesulfonamide] here?
**A.** 0.78

**Q.** And the “improvement of affinity for the BRD4 BrD1 vs compound 3” value (BRD4 BrD1; vs 3)?
**A.** over 6 fold

**Q.** Cc1nc(/N=N/c2ccc(S(=O)(=O)Nc3ccccn3)cc2)c(C)c(C)c1O [Compound 32, (E)-4-((5-hydroxy-3,4,6-trimethylpyridin-2-yl)diazenyl)-N-(pyridin-2-yl)benzenesulfon-amide] was tested. Which “loss in activity/affinity toward BRD4 BrD1 vs MS435” value (BRD4 BrD1; vs MS435) did it give?
**A.** 3 fold

**Q.** With CC(C)(C)c1cc(/N=N/c2ccc(S(=O)(=O)Nc3ccccn3)cc2)ccc1O [Compound 40, (E)-4-((3-(tert-butyl)-4-hydroxyphenyl)diazenyl)-N-(pyridin-2-yl)benzenesulfonamide] as the molecule, how does the “loss in activity/affinity toward BRD4 BrD1 vs MS435” value (BRD4 BrD1; vs MS435) read?
**A.** about 10 fold

**Q.** For Cc1cc(/N=N/c2ccc(S(=O)(=O)N(C)c3ccccn3)cc2)cc(C)c1O [Compound 6, (E)-4-((4-hydroxy-3,5-dimethylphenyl)diazenyl)-N-methyl-N-(pyridin-2-yl)benzenesul-fonamide], which “loss in activity/affinity toward BRD4 BrD1 vs MS435” value (BRD4 BrD1; vs MS435) is on record?
**A.** 9 fold

**Q.** For COc1c(C)cc(/N=N/c2ccc(S(=O)(=O)Nc3ccccn3)cc2)cc1C [Compound 37, (E)-4-((4-methoxy-3,5-dimethylphenyl)diazenyl)-N-(pyridin-2-yl)benzenesulfonamide], which “binding activity toward BRD4 BrD1 (in words)” value (BRD4 BrD1) is on record?
**A.** completely lost binding activity

**Q.** For Cc1cc(/N=N/c2cc(S(=O)(=O)O)c(C)cc2C)c(N)cc1O [Compound 1, (E)-5-((2-amino-4-hydroxy-5-methylphenyl)diazenyl)-2,4-dimethylbenzenesulfonic acid], which “binding activity toward BRD4 BrD1 (in words)” value (BRD4 BrD1) is on record?
**A.** modest activity

**Q.** How did the “loss in activity/affinity toward BRD4 BrD1 vs MS435” value (BRD4 BrD1; vs MS435) turn out when CC(C)c1cc(/N=N/c2ccc(S(=O)(=O)Nc3ccccn3)cc2)ccc1O [Compound 39, (E)-4-((4-hydroxy-3-isopropylphenyl)diazenyl)-N-(pyridin-2-yl)benzenesulfonamide] was run?
**A.** about 10 fold

**Q.** How did the “binding activity toward BRD4 BrD1 (in words)” value (BRD4 BrD1) turn out when Cc1cc(/N=N/c2cccc(S(=O)(=O)Nc3ccccn3)c2)cc(C)c1O [Compound 3, (E)-3-((4-hydroxy-3,5-dimethylphenyl)diazenyl)-N-(pyridin-2-yl)benzenesulfonamide] was run?
**A.** retained the affinity of 2

**Q.** For Cc1cc(/N=N/c2ccc(S(=O)(=O)Nc3ccccn3)cc2)nc(C)c1O [Compound 31, (E)-4-((5-hydroxy-4,6-dimethylpyridin-2-yl)diazenyl)-N-(pyridin-2-yl)benzenesulfonamide], which “loss in activity/affinity toward BRD4 BrD1 vs MS435” value (BRD4 BrD1; vs MS435) is on record?
**A.** 3 fold

**Q.** For Cc1cc(/N=N/c2ccc(S(=O)(=O)NCc3ccc(C(F)(F)F)cc3)cc2)c(N)cc1O [Compound 36, (E)-4-((2-amino-4-hydroxy-5-methylphenyl)diazenyl)-N-(4-(trifluoromethyl)benzyl)benzene sulfonamide], which “binding activity toward BRD4 BrD1 (in words)” value (BRD4 BrD1) is on record?
**A.** deteriorated drastically

**Q.** Which results are given for COc1cc(/N=N/c2ccc(S(=O)(=O)Nc3ccccn3)cc2)c(N)cc1O [Compound 30, (E)-4-((2-amino-4-hydroxy-5-methoxyphenyl)diazenyl)-N-(pyridin-2-yl)benzenesulfon-amide]?
**A.** reduction in binding affinity to the BRD4 BrD1 vs MS436 (BRD4 BrD1): 15 fold; reduction in binding affinity to the BRD4 BrD2 vs MS436 (BRD4 BrD2): 15 fold

**Q.** With COc1ccc(NS(=O)(=O)c2ccc(/N=N/c3cc(C)c(O)c(C)c3)cc2)nc1 [Compound 12, (E)-4-((4-hydroxy-3,5-dimethylphenyl)diazenyl)-N-(5-methoxypyridin-2-yl)benzenesulfon-amide] as the molecule, how does the “improvement in binding affinity to the BRD4 BrD1 by nitrogen in the C ring” value (BRD4 BrD1; 12 vs. 13) read?
**A.** 13 fold

**Q.** What about the “selectivity for the BrD1 over the BrD2 of BRD4” value (BRD4 BrD1; ratio of binding affinities) of the same molecule?
**A.** 4 fold

**Q.** And the “increase in binding affinity for the BRD4 BrD2 by nitrogen in the C ring” value (BRD4 BrD2; 12 vs. 13)?
**A.** 3 fold

**Q.** For Cc1cc(/N=N/c2ccc(S(=O)(=O)Nc3ccc(C(=O)O)cn3)cc2)cc(C)c1O [Compound 9, (E)-6-(4-((4-hydroxy-3,5-dimethylphenyl)diazenyl)phenylsulfonamido)nicotinic acid], which “better affinity/potency toward BRD4 BrD1 than MS435” value (BRD4 BrD1; vs MS435) is on record?
**A.** about 3 fold

**Q.** Which “binding activity toward BRD4 BrD1 (in words)” value (BRD4 BrD1) does the source give for CC(C)c1cc(/N=N/c2ccc(S(=O)(=O)Nc3ccccn3)cc2)cc(C(C)C)c1O [Compound 41, (E)-4-((4-hydroxy-3,5-diisopropylphenyl)diazenyl)-N-(pyridin-2-yl)benzenesulfonamide] here?
**A.** almost completely lost their activities
